Experimental findings from ChEMBL document CHEMBL5252509, “In depth analysis of kinase cross screening data to identify chemical starting points for inhibition of the Nek family of kinases” (Medchemcomm, 2018) are described below.

Assay [1] addresses Serine/threonine-protein kinase Nek4 (Homo sapiens) (UniProt P51957). In words: Inhibition of NEK4 (unknown origin) at 10 uM relative to control.
The target of assay [2] is T1, Serine/threonine-protein kinase Nek3 (Homo sapiens) (UniProt P51956).
T1 sequence (whole entry): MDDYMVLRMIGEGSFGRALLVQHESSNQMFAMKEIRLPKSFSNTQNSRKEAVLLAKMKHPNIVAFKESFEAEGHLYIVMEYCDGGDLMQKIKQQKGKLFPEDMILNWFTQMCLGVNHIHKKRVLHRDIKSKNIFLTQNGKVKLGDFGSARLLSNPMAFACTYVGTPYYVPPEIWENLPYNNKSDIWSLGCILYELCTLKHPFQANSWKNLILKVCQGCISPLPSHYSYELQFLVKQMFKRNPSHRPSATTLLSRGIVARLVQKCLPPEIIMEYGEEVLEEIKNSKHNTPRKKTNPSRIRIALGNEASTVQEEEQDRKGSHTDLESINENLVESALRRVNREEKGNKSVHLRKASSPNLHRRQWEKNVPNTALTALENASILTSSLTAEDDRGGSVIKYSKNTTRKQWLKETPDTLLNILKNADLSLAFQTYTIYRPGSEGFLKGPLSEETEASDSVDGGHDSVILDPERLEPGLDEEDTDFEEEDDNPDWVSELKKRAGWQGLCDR
Kind of assay: Inhibition of NEK3 (unknown origin) at 10 uM relative to control.

Assay [3] addresses T2, Serine/threonine-protein kinase Nek5 (Homo sapiens) (UniProt Q6P3R8).
T2 sequence (whole entry): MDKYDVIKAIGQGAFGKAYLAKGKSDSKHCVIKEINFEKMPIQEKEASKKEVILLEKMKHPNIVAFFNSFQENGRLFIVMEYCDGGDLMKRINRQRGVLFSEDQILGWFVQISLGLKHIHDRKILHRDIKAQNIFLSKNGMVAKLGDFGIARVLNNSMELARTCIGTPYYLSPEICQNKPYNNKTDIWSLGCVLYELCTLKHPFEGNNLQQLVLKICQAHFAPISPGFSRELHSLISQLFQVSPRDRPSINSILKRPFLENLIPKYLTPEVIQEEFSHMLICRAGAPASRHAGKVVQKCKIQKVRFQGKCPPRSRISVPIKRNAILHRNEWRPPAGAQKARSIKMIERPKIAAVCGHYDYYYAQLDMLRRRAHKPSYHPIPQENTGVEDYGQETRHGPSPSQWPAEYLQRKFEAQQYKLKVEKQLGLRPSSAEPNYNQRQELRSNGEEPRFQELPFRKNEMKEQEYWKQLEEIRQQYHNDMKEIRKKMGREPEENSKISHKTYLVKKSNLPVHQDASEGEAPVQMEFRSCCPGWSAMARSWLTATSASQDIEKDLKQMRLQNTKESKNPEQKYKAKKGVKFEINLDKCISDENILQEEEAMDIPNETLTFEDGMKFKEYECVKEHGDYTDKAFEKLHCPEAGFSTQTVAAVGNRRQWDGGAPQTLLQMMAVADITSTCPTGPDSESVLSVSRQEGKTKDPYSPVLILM
In words: Inhibition of NEK5 (unknown origin) at 10 uM relative to control.

Assay [4] has as its target T3, Serine/threonine-protein kinase Nek9 (Homo sapiens) (UniProt Q8TD19).
T3 sequence (whole entry): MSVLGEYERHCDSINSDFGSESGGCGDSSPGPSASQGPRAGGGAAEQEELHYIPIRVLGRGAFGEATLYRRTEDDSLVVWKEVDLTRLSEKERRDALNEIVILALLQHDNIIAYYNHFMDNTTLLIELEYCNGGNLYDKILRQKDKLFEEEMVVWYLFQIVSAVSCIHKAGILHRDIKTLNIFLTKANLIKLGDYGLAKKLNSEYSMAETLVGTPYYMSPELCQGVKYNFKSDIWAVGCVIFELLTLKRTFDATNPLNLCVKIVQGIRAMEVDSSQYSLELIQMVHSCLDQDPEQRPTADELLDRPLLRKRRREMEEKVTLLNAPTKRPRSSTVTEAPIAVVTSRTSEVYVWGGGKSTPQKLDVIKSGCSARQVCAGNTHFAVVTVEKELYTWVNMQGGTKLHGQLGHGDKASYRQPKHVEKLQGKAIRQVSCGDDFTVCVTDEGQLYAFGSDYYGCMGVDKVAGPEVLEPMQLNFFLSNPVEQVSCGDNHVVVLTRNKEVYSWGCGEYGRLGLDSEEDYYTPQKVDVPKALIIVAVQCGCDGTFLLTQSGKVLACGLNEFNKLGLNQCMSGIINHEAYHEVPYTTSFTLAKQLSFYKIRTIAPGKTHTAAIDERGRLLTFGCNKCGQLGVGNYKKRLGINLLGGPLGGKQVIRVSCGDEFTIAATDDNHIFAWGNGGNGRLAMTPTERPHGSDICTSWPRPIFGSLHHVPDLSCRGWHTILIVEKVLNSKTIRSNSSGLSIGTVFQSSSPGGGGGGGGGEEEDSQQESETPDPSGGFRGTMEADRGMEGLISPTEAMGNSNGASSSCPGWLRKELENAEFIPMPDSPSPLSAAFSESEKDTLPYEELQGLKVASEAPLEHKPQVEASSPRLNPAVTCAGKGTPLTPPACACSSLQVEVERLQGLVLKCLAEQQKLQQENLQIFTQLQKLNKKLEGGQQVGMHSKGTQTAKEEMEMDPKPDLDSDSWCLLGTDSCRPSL
In words: Inhibition of NEK9 (unknown origin) at 1 uM relative to control.

Assay [5] has as its target T1, Serine/threonine-protein kinase Nek3 (Homo sapiens). Kind of assay: Inhibition of NEK3 (unknown origin) at 1 uM relative to control.
In assay [6] the target is Serine/threonine-protein kinase Nek6 (Homo sapiens) (UniProt Q9HC98). In words: Inhibition of NEK6 (unknown origin) at 1 uM relative to control.
The target of assay [7] is T4, Serine/threonine-protein kinase Nek2 (Homo sapiens) (UniProt P51955).
T4 sequence (whole entry): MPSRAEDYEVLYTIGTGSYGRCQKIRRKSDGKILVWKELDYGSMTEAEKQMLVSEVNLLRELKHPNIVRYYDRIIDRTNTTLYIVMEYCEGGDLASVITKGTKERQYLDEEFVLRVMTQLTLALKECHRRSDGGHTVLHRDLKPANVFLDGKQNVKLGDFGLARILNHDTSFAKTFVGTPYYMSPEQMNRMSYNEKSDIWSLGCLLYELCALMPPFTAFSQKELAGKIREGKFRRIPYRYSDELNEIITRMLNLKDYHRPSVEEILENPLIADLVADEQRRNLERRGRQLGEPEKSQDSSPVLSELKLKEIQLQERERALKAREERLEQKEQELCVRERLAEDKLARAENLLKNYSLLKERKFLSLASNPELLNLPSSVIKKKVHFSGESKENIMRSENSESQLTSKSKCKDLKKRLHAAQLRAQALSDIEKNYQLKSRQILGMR
Kind of assay: Inhibition of NEK2 (unknown origin) at 1 uM relative to control.

What is called inhibition is the drop in the measured response relative to a control, in per cent. Read a high inhibition as a strong effect.

Sequence of Serine/threonine-protein kinase Nek4 (Homo sapiens) (P51957 whole entry, looked up): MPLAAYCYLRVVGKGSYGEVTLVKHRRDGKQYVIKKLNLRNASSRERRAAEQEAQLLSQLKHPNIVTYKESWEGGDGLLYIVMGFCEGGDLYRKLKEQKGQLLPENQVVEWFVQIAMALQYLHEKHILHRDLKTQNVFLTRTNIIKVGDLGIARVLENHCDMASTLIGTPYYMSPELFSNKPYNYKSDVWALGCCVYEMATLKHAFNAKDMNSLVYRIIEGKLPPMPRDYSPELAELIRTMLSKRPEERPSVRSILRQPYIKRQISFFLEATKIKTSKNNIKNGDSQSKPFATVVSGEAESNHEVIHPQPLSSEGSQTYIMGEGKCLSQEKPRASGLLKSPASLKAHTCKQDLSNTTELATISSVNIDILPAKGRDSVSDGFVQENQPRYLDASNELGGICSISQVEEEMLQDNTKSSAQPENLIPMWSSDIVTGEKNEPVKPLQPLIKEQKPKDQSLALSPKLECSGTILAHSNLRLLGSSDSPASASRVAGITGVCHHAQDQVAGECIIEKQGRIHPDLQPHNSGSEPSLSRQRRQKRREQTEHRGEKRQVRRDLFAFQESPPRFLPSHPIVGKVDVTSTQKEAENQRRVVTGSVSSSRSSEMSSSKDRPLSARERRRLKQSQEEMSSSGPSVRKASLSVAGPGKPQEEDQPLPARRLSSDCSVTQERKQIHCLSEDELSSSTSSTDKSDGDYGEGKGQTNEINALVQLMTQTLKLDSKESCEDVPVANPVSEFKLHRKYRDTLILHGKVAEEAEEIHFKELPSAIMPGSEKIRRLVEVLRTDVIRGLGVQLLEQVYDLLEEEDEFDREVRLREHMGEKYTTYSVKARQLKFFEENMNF
Sequence of Serine/threonine-protein kinase Nek6 (Homo sapiens) (Q9HC98 whole entry): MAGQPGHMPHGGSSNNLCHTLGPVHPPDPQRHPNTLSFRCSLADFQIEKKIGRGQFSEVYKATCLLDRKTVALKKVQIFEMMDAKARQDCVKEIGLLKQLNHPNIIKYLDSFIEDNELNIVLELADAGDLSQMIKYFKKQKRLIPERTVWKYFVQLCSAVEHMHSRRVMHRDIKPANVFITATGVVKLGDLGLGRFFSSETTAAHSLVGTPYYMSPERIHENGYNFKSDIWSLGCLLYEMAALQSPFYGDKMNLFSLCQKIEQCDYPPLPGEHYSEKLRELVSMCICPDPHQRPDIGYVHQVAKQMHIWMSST

Turning to `Cc1ccc(NC(=O)c2ccc(NC(=O)/C=C/CN(C)C)cc2)cc1Nc1nccc(-c2cccnc2)n1`, the values for the % control in assay [1], in assay [2] and in assay [3] were 100%, 99% and 51%, respectively.

As for `CN(C)C/C=C/C(=O)Nc1cccc(C(=O)Nc2ccc(Nc3nccc(/C(C#N)=C4\Nc5ccccc5S4)n3)cc2)c1`, the % control in assay [1], in assay [2] and in assay [3] was 100% in each case.

`Cc1cc(NC(=O)c2cccc(NC(=O)/C=C/CN(C)C)c2)ccc1Nc1nccc(-c2cccnc2)n1`: the % control worked out at 79% in assay [1], 73% in assay [2] and 92% in assay [3].

`Fc1cc(-c2cc[nH]/c(=N/c3ccc(-n4cnc(N5CCOCC5)n4)cc3)n2)cc(N2CCOCC2)c1`: the % control was determined as 100% in assay [1], 0.8% in assay [2] and 1.4% in assay [3].

Take `CN(C)C/C=C/C(=O)Nc1ccc(C(=O)Nc2cccc(Nc3nccc(-c4cccnc4)n3)c2)cc1`: the values for the % control in assay [1], in assay [2] and in assay [3] were 100%, 17% and 2.2%, respectively.

Regarding `O=C1NC(=O)/C(=C/c2ccc3nccc(-c4ccncc4)c3c2)S1`, the % control in assay [1] is 96%; in assay [2] it was 77%; in assay [3], 100%.

In the case of `CN(C)C/C=C/C(=O)Nc1cccc(C(=O)Nc2ccc(Nc3nccc(-c4c(-c5ccccc5)nn5ccccc45)n3)cc2)c1`, the % control was 100% in assay [1], 99% in assay [2] and 98% in assay [3].

In the case of `CN(C)C/C=C/C(=O)Nc1cccc(C(=O)Nc2ccc(Nc3nccc(-c4cccnc4)n3)cc2)c1`, the % control is 83% in assay [1], 6.8% in assay [2] and 7.8% in assay [3].

With `COc1cccc(C2=C(Nc3cccc(O)c3)C(=O)NC2=O)c1`, the inhibition in assay [4] is 15%; in assay [5] it was 19%; in assay [6], 0%; in assay [7], 0%.
